From US5605929A, “Methods and compositions for inhibiting 5α-reductase activity” (priority 1995, dated 1997)

The molecules below were run on hamster flank organ (assay: Flank organ, castrated immature male hamsters, topical treatment). Conditions: Table 4, T 0.5 μg alone, 18 days.
Assay type: in vivo, Syrian golden hamster
Protocol: One to two weeks after castration, the hair on the lower back of each animal was clipped with an electric hair clipper and then shaved weekly to expose the flank organs. The animals were divided into 5 animals/treatment group. A treatment solution (5 μl) was applied topically to the right flank organ once a day using a Pipetteman and a polypropylene disposable tip. Unless specified the left flank organ was not treated. The treatment solution contained either (a) ethanol alone (vehicle and control), (b) an androgen (T or 5α-DHT), (c) a fatty acid, or (d) a combination of an androgen and a fatty acid. The flank organ was wiped with an alcohol pad to remove residual compound before each treatment. […] The flank organs, both the treated and untreated sides, were evaluated with methods to be described below to determine the effect of these treatments of the growth of the pigmented macules and the sebaceous glands. The body weight of each animal was recorded before and after treatment.
The data are presented as mean ± standard deviation. […]

Compound | Pigmented Macule, Untreated (L) [mm^2]
C[C@]12CC[C@H]3[C@@H](CCC4=CC(=O)CC[C@@]43C)[C@@H]1CC[C@@H]2O [T, Testosterone, reference compound] | 3.6 ± 0.5

Same assay, conditions: topical to right flank organ

Compound | effect on the contralateral flank organ
C[C@]12CC[C@H]3[C@@H](CCC4=CC(=O)CC[C@@]43C)[C@@H]1CC[C@@H]2O [T, Testosterone, reference compound] | no detectable effect
C[C@]12CCC(=O)C[C@@H]1CC[C@@H]1[C@@H]2CC[C@]2(C)[C@@H](O)CC[C@@H]12 [5α-DHT, 5α-dihydrotestosterone, reference compound] | no detectable effect

These molecules were tested against T1, 5α-Reductase of Rat Liver Microsomes (Rattus norvegicus, UniProt P24008) (assay: biochemical). Conditions: not given.
T1 sequence (P24008 1-259): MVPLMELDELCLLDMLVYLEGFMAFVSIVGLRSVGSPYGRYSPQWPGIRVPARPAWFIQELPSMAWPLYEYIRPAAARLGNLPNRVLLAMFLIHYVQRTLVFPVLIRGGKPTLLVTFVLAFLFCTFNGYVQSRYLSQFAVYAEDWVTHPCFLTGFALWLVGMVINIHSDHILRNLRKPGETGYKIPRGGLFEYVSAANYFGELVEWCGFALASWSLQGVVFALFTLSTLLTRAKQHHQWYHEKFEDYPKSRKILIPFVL

Compound | IC50 [µM]
CCCCCCCC/C=C\CCCCCCCCCCC(=O)O | 154
CCCCC/C=C\C/C=C\CCCCCCCCCC(=O)OC [11,14-cis-Eicosadienoate, methyl 11,14 eicosadienoate] | > 200
CC/C=C\C/C=C\C/C=C\C/C=C\CCCCC(=O)O [Octadecatetraenoic acid] | 57
CC/C=C\C/C=C\C/C=C\CCCCCCCCCCCC(=O)O [13,16,19-Docosatrienoic Acid, 13,16,19-docosatrienoic acid] | 163
CCCCCCCCCCCCCCCCCCC#N [nonadecane nitrile] | > 200
CCCCC/C=C\C/C=C\CCCCCCCCC#N [linoleyl cyanide nitrile] | > 200
CCCCCCCCCCC/C=C\CCCCCCC(=O)O [8-Eicosenoic Acid, 8-eicosenoic acid] | 48
CCCCCC/C=C\CCCCCCCCCCC(=O)O [12-cis-Nonadecenoic Acid, 12-nonadecenoic acid] | 90
CCCCC/C=C\C/C=C\CCCCCCCCCC(=O)Cl [11,14-cis-Eicosaidienoyl Chloride, 11,14-eicosadienoyl chloride] | > 200
CCCCCCCC/C=C\CCCCCCCCCC(=O)O [11-Eicosenoic Acid, 11 eicosenoic acid] | 146
CC/C=C\C/C=C\C/C=C\CCCCCCCCCC(=O)Cl [11,14,17-cis-Eicosatrienoyl Chloride, 11,14,17-eicosatrienoyl chloride] | > 200
CCCCC/C=C\C/C=C\C/C=C\CCCCC(=O)O[C@H]1CC[C@@]2(C)C(=CC[C@H]3[C@@H]4CC[C@H]([C@H](C)CCCC(C)C)[C@@]4(C)CC[C@@H]32)C1 [cholesteryl γ-linolenate] | > 200
CCCCCCCC/C=C\CCCCCCCCCCCCC(=O)O [14-Tricosenoic Acid, 14 tricosenoic acid] | > 200
CCCCC/C=C\C/C=C\C/C=C\CCCCCCC(=O)O [8,11,14-cis-Eicosatrienoic Acid, 8,11,14-eicosatrienoic acid] | 15
CCCCC/C=C\CCCCCCCCCCC(=O)O [12-Octadecenoic Acid, 12-octadecenoic acid] | > 200
CCCCCCCC/C=C\CCCCCCCCC(=O)O [10-cis-Nonadecenoic Acid, 10-nonadecenoic acid] | 130
CCCCC/C=C\C/C=C\CCCCCCCCCCCC(=O)O [13,16-Docosadienoic Acid, 13,16-docosadienoic acid] | 118

Same assay, conditions: read-out: % Inhibition of [^3 H]4-MA binding, Table 1, 10 μM

Compound | inhibition at 10 µM [%]
CC/C=C\C/C=C\C/C=C\C/C=C\CCCCC(=O)O [Octadecatetraenoic acid] | < 10

Same assay, conditions: read-out: % Inhibition of [^3 H]4-MA binding, Table 1, 40 μM

Compound | inhibition at 40 µM [%]
CC/C=C\C/C=C\C/C=C\C/C=C\CCCCC(=O)O [Octadecatetraenoic acid] | 40 ± 6

Same assay, conditions: read-out: % Inhibition of [^3 H]4-MA binding, Table 1, 200 μM

Compound | inhibition at 200 µM [%]
CC/C=C\C/C=C\C/C=C\C/C=C\CCCCC(=O)O [Octadecatetraenoic acid] | 88 ± 2

Same assay, conditions: read-out: % Inhibition of [^3 H]4-MA binding, Table 2, 5 μM

Compound | inhibition at 5 µM [%]
CCCCCCCC/C=C\CCCCCCCCCCC(=O)O | < 10
CCCCC/C=C\C/C=C\CCCCCCCCCC(=O)OC [11,14-cis-Eicosadienoate, methyl 11,14 eicosadienoate] | < 10
CC/C=C\C/C=C\C/C=C\CCCCCCCCCCCC(=O)O [13,16,19-Docosatrienoic Acid, 13,16,19-docosatrienoic acid] | < 10
CCCCCCCCCCC/C=C\CCCCCCC(=O)O [8-Eicosenoic Acid, 8-eicosenoic acid] | 14
CCCCCC/C=C\CCCCCCCCCCC(=O)O [12-cis-Nonadecenoic Acid, 12-nonadecenoic acid] | < 10
CCCCC/C=C\C/C=C\CCCCCCCCCC(=O)Cl [11,14-cis-Eicosaidienoyl Chloride, 11,14-eicosadienoyl chloride] | < 10
CCCCCCCC/C=C\CCCCCCCCCC(=O)O [11-Eicosenoic Acid, 11 eicosenoic acid] | < 10
CC/C=C\C/C=C\C/C=C\CCCCCCCCCC(=O)Cl [11,14,17-cis-Eicosatrienoyl Chloride, 11,14,17-eicosatrienoyl chloride] | < 10
CCCCCCCC/C=C\CCCCCCCCCCCCC(=O)O [14-Tricosenoic Acid, 14 tricosenoic acid] | < 10
CCCCC/C=C\C/C=C\C/C=C\CCCCCCC(=O)O [8,11,14-cis-Eicosatrienoic Acid, 8,11,14-eicosatrienoic acid] | < 10
CCCCC/C=C\CCCCCCCCCCC(=O)O [12-Octadecenoic Acid, 12-octadecenoic acid] | < 10
CCCCCCCC/C=C\CCCCCCCCC(=O)O [10-cis-Nonadecenoic Acid, 10-nonadecenoic acid] | < 10
CCCCC/C=C\C/C=C\CCCCCCCCCCCC(=O)O [13,16-Docosadienoic Acid, 13,16-docosadienoic acid] | < 10

Same assay, conditions: read-out: % Inhibition of [^3 H]4-MA binding, Table 2, 10 μM

Compound | inhibition at 10 µM [%]
CCCCCCCC/C=C\CCCCCCCCCCC(=O)O | 15
CCCCC/C=C\C/C=C\CCCCCCCCCC(=O)OC [11,14-cis-Eicosadienoate, methyl 11,14 eicosadienoate] | < 10
CC/C=C\C/C=C\C/C=C\C/C=C\CCCCC(=O)O [Octadecatetraenoic acid] | < 10
CC/C=C\C/C=C\C/C=C\CCCCCCCCCCCC(=O)O [13,16,19-Docosatrienoic Acid, 13,16,19-docosatrienoic acid] | < 10
CCCCCCCCCCC/C=C\CCCCCCC(=O)O [8-Eicosenoic Acid, 8-eicosenoic acid] | 41
CCCCCC/C=C\CCCCCCCCCCC(=O)O [12-cis-Nonadecenoic Acid, 12-nonadecenoic acid] | < 10
CCCCC/C=C\C/C=C\CCCCCCCCCC(=O)Cl [11,14-cis-Eicosaidienoyl Chloride, 11,14-eicosadienoyl chloride] | < 10
CCCCCCCC/C=C\CCCCCCCCCC(=O)O [11-Eicosenoic Acid, 11 eicosenoic acid] | < 10
CC/C=C\C/C=C\C/C=C\CCCCCCCCCC(=O)Cl [11,14,17-cis-Eicosatrienoyl Chloride, 11,14,17-eicosatrienoyl chloride] | < 10
CCCCCCCC/C=C\CCCCCCCCCCCCC(=O)O [14-Tricosenoic Acid, 14 tricosenoic acid] | < 10
CCCCC/C=C\C/C=C\C/C=C\CCCCCCC(=O)O [8,11,14-cis-Eicosatrienoic Acid, 8,11,14-eicosatrienoic acid] | 42
CCCCC/C=C\CCCCCCCCCCC(=O)O [12-Octadecenoic Acid, 12-octadecenoic acid] | < 10
CCCCCCCC/C=C\CCCCCCCCC(=O)O [10-cis-Nonadecenoic Acid, 10-nonadecenoic acid] | < 10
CCCCC/C=C\C/C=C\CCCCCCCCCCCC(=O)O [13,16-Docosadienoic Acid, 13,16-docosadienoic acid] | < 10

Same assay, conditions: read-out: % Inhibition of [^3 H]4-MA binding, Table 2, 40 μM

Compound | inhibition at 40 µM [%]
CCCCCCCC/C=C\CCCCCCCCCCC(=O)O | 25
CCCCC/C=C\C/C=C\CCCCCCCCCC(=O)OC [11,14-cis-Eicosadienoate, methyl 11,14 eicosadienoate] | < 10
CC/C=C\C/C=C\C/C=C\C/C=C\CCCCC(=O)O [Octadecatetraenoic acid] | 40
CC/C=C\C/C=C\C/C=C\CCCCCCCCCCCC(=O)O [13,16,19-Docosatrienoic Acid, 13,16,19-docosatrienoic acid] | < 10
CCCCCCCCCCC/C=C\CCCCCCC(=O)O [8-Eicosenoic Acid, 8-eicosenoic acid] | 52
CCCCCC/C=C\CCCCCCCCCCC(=O)O [12-cis-Nonadecenoic Acid, 12-nonadecenoic acid] | 32
CCCCC/C=C\C/C=C\CCCCCCCCCC(=O)Cl [11,14-cis-Eicosaidienoyl Chloride, 11,14-eicosadienoyl chloride] | < 10
CCCCCCCC/C=C\CCCCCCCCCC(=O)O [11-Eicosenoic Acid, 11 eicosenoic acid] | 15
CC/C=C\C/C=C\C/C=C\CCCCCCCCCC(=O)Cl [11,14,17-cis-Eicosatrienoyl Chloride, 11,14,17-eicosatrienoyl chloride] | < 10
CCCCCCCC/C=C\CCCCCCCCCCCCC(=O)O [14-Tricosenoic Acid, 14 tricosenoic acid] | < 10
CCCCC/C=C\C/C=C\C/C=C\CCCCCCC(=O)O [8,11,14-cis-Eicosatrienoic Acid, 8,11,14-eicosatrienoic acid] | 92
CCCCC/C=C\CCCCCCCCCCC(=O)O [12-Octadecenoic Acid, 12-octadecenoic acid] | < 10
CCCCCCCC/C=C\CCCCCCCCC(=O)O [10-cis-Nonadecenoic Acid, 10-nonadecenoic acid] | 13
CCCCC/C=C\C/C=C\CCCCCCCCCCCC(=O)O [13,16-Docosadienoic Acid, 13,16-docosadienoic acid] | 21

Same assay, conditions: read-out: % Inhibition of [^3 H]4-MA binding, Table 2, 200 μM

Compound | inhibition at 200 µM [%]
CCCCCCCC/C=C\CCCCCCCCCCC(=O)O | 60
CCCCC/C=C\C/C=C\CCCCCCCCCC(=O)OC [11,14-cis-Eicosadienoate, methyl 11,14 eicosadienoate] | < 10
CC/C=C\C/C=C\C/C=C\C/C=C\CCCCC(=O)O [Octadecatetraenoic acid] | 88
CC/C=C\C/C=C\C/C=C\CCCCCCCCCCCC(=O)O [13,16,19-Docosatrienoic Acid, 13,16,19-docosatrienoic acid] | 65
CCCCCCCCCCC/C=C\CCCCCCC(=O)O [8-Eicosenoic Acid, 8-eicosenoic acid] | 81
CCCCCC/C=C\CCCCCCCCCCC(=O)O [12-cis-Nonadecenoic Acid, 12-nonadecenoic acid] | 91
CCCCC/C=C\C/C=C\CCCCCCCCCC(=O)Cl [11,14-cis-Eicosaidienoyl Chloride, 11,14-eicosadienoyl chloride] | < 10
CCCCCCCC/C=C\CCCCCCCCCC(=O)O [11-Eicosenoic Acid, 11 eicosenoic acid] | 76
CC/C=C\C/C=C\C/C=C\CCCCCCCCCC(=O)Cl [11,14,17-cis-Eicosatrienoyl Chloride, 11,14,17-eicosatrienoyl chloride] | < 10
CCCCCCCC/C=C\CCCCCCCCCCCCC(=O)O [14-Tricosenoic Acid, 14 tricosenoic acid] | 36
CCCCC/C=C\C/C=C\C/C=C\CCCCCCC(=O)O [8,11,14-cis-Eicosatrienoic Acid, 8,11,14-eicosatrienoic acid] | 82
CCCCC/C=C\CCCCCCCCCCC(=O)O [12-Octadecenoic Acid, 12-octadecenoic acid] | < 10
CCCCCCCC/C=C\CCCCCCCCC(=O)O [10-cis-Nonadecenoic Acid, 10-nonadecenoic acid] | 79
CCCCC/C=C\C/C=C\CCCCCCCCCCCC(=O)O [13,16-Docosadienoic Acid, 13,16-docosadienoic acid] | 93
